Measured values: publication PMC6377692 (EJNMMI Research, 2019)
pEC50: −log10 of the molar value. Bridge positions count the residues as written; N and C are the ends. Square brackets hold non-standard residues; d marks the D form. Peptide text beside a SMILES is read from it. * marks the point of attachment. DO3A(CH2CH2SO2CH2CH2) = O=C(O)CN1CCN(CCS(=O)(=O)CC*)CCN(CC(=O)O)CCN(CC(=O)O)CC1; Ala(4-thiazolyl) = N[C@@H](Cc1cscn1)C(=O)O

Test system: cynomolgus monkey GCGR
Assay: functional cAMP assay in transfected HEK293 cells
Type: cell-based
Protocol: The same assay was performed for GLP-1R to assess cross-binding. Details of the assay procedure are described in Additional file 1 and have also been described elsewhere.
cAMP content of cells was determined using a kit from Cisbio Corp. (cat. no. 62AM4PEJ) based on HTRF (Homogenous Time Resolved Fluorescence). For preparation, cells were split into T175 culture flasks and grown overnight to near confluency in medium (DMEM / 10% FBS). Medium was then removed and cells washed with PBS lacking calcium and magnesium, followed by proteinase treatment with accutase (Sigma-Aldrich cat. no. A6964). Detached cells were washed and resuspended in assay buffer (1 x HBSS; 20 mM HEPES, 0.1% BSA, 2 mM IBMX) and cellular density determined. They were then diluted to 400000 cells/ml and 25 µl-aliquots dispensed into the wells of 96-well plates. For measurement, 25 µl of test compound in assay buffer was added to the wells, followed by incubation for 30 minutes at room temperature.

CC[C@H](C)[C@H](NC(=O)[C@H](Cc1ccccc1)NC(=O)[C@H](CCC(=O)O)NC(=O)[C@@H]1CCCCNC(=O)CC[C@H](NC(=O)[C@H](CC(=O)O)NC(=O)[C@H](CC(C)C)NC(=O)[C@H](CCC(N)=O)NC(=O)[C@H](CCCCN)NC(=O)[C@H](CO)NC(=O)[C@H](Cc2ccc(O)cc2)NC(=O)[C@H](CC(=O)O)NC(=O)[C@H](CO)NC(=O)[C@@H](NC(=O)[C@H](Cc2ccccc2)NC(=O)[C@@H](NC(=O)CNC(=O)[C@H](CCC(N)=O)NC(=O)[C@@H](CO)NC(=O)[C@@H](N)Cc2cscn2)[C@@H](C)O)[C@@H](C)O)C(=O)N[C@@H](CCC(N)=O)C(=O)N[C@@H](CCCNC(=N)N)C(=O)N[C@@H](C)C(=O)N1)C(=O)N[C@@H](CCC(=O)O)C(=O)N[C@@H](Cc1c[nH]c2ccccc12)C(=O)N[C@@H](CC(C)C)C(=O)N[C@@H](CC(C)C)C(=O)N[C@@H](C)C(=O)N[C@H](C(=O)NCC(=O)N1CCC[C@H]1C(=O)N[C@@H](CCC(=O)O)C(=O)N[C@@H](CO)C(=O)NCC(=O)N[C@@H](C)C(=O)N1CCC[C@H]1C(=O)N1CCC[C@H]1C(=O)N1CCC[C@H]1C(=O)N[C@@H](CO)C(=O)N[C@@H](CSCCS(=O)(=O)CCN1CCN(CC(=O)O)CCN(CC(=O)O)CCN(CC(=O)O)CC1)C(N)=O)[C@@H](C)O [DO3A-S01-GCG] (H-[Ala(4-thiazolyl)][dS]QGTFTSDYSKQLDEQRAKEFIEWLLATGPESGAPPPSC(DO3A(CH2CH2SO2CH2CH2))-NH2; lactam 16-20)
pEC50: 11.92
